The subject of data set [1] is despair or resignation behavior in adult male rats. In words: Behavioral despair test (forced swimming test).
Method: The protective effect against resignation may be determined by the forced swimming test in rats.
The peptide to be tested is administered after the pre-test session and before the test. The immobility time of the rats is recorded for 5 min during the pre-test and the test.
The test includes a pre-test session of 15 minutes and a test session of 5 minutes, after 24 hours. During the pre-test session, the behavior of the rat is recorded during the first 5 minutes. At the end of the pre-test, the rat is removed from the water, delicately dried, treated and then put back in his dwelling cage. During the test, the rat is again deposited in water and its behavior is recorded for 5 minutes.
The reference substance was 8-OH-DOAT (0.5 mg/kg) which is a 5-HT1a agonist or imipramine (20 mg/kg), which is an inhibitor of serotonin reuptake.
Data set [2] has as its system colic inflammation in rats. In words: Colic inflammation model (intrarectal TNBS). The class given is in vivo, rat. As to conditions: opiorphin 1 mg/kg i.v.
The subject of data set [3] is tail-flick response in male Wistar rats.
Method: Male Wistar rats (Harlan, France) weighing 250 to 280 g at the beginning of the experiment were used in this study. After 7-day acclimatization period, they were weighed and randomly housed according to the treatment groups in a room with a 12 h alternating light/dark cycle (21:00 p.m./9:00 a.m.) and controlled temperature (21±1° C.) and hygrometry (50±5%). Food and water were available ad libidum. They were experimentally only tested once.
(§1) All drugs were administered in a volume of 1 ml/kg body weight.
The tail-flick test evaluating the time required to respond to acute thermal stimulus preferentially reflects nociceptive spinal reflex. A standardized tail-flick apparatus (Harvard Apparatus LTD, Edenbridge, England) with a radiant heat source connected to an automated tail-flick analgesymeter was used. Rats were accustomed to the situation of contention for two 2-min sessions, the day prior the test. On experimental day, they were gently restrained by hand so the radiant heat source was focused onto the distal dorsal surface of the tail. […] Under these experimental conditions and in reference to morphine, a 5 sec cut-off time was established to prevent tissue damage. […] For tolerance induction rats received daily intravenous administration of freshly prepared solutions during seven consecutive days.
The results were expressed as mean±SEM. The significance of differences between groups was evaluated using the Kruskal-Wallis one-way analysis of variance by ranks (KWT, a non-parametric method) for comparison between several independent variables across the experimental conditions. […] The non-parametric Wilcoxon matched pairs test (WT) was used to compare two paired variables with repeated measures in each treatment group. For all statistical evaluations, the level of significance was set at P<0.05. All statistical analyses were carried out using the computer software StatView®5 statistical package (SAS, Institute, Inc., USA).
Data set [4] deals with acute pain behavioral response in male rats.
Data set [5] relates to locomotor activity in rats. As to conditions: opiorphin 1 mg/kg i.v.; vs control.
Method: The measured variables are the number of upright standing movements (vertical activity) and the number of passages into the two compartments (horizontal activity) during a period of 3 min. The reference molecule is imipramine (20 mg/kg).
Data set [6] has as its system anxiety in Wistar male rats.
Data set [7] relates to pharmaco-dependency behavior in rats. Conditions: opiorphin at effective analgesic doses (1 mg/kg), repeated administration.
In data set [8] the test system is chronic pain behavioral response in rats. In words: Formalin test (chronic chemical inflammatory pain).
Method: The reference substance is morphine, at a dose of 2 mg/kg.
The antagonistic effect of the following ligands was analyzed: an opioid antagonist with a wide spectrum (Naloxone, 3 mg/kg) and selective antagonists of the opioid μ-receptors (CTOP, 0.8 mg/kg), δ-receptors (Naltrindole, 10 mg/kg) and κ-receptors (Nor-Binaltorphimine, 5 mg/kg), respectively.
as §1

Peptide text beside a SMILES is read from it.

Consider four compounds from US20150329608A1 (INSTITUT PASTEUR, priority 2008, published 2015).

From the text for memorization in rats: With the passive avoidance test in rats it is possible to evaluate the degree of memorization of the animal during the application of an aversive stimulus from which it cannot escape. […] The first compartment where the rat is deposited at the beginning of the test is illuminated and communicates through a sash door with a dark compartment and the floor of which includes an electrified grid. The passive avoidance test includes a pre-test session where the animals receive an electric shock (2 mA, 2s) when it enters the dark compartment, and a 3 minute test session after 24 hours, where the behavior of the animal is analyzed for its long term retention of the learned task (the grid of the dark compartment is no longer electrified in the test).

Regarding `CCCN(CCC)C1CCc2cccc(O)c2C1` (stereo not drawn) [8-OH-DPAT, reference compound], in data set [1] (8-OH-DPAT 0.5 mg/kg), the “immobility time in the test vs control group (Mann-Whitney)” value is given as “significantly less than that of the rats from the control group”; the “immobility time, change between pre-test and test (Wilcoxon)” value is “significantly decreases between the pre-test and the test”.
For the compound `CC(C)Cc1ccc(C(C)C(=O)O)cc1` (stereo not drawn) [ibuprofen, reference compound], the “protection of the colic wall from inflammation” value in data set [2] is “protect the colic wall from inflammation”.
On to `CN1CC[C@]23c4c5ccc(O)c4O[C@H]2[C@@H](O)C=C[C@H]3[C@H]1C5` [morphine, reference compound], for which the “inhibition of peristaltism as compared with control rats” value in the data set on peristaltism in rats (rats treated with morphine) is 80-90%. In data set [3] (15 min post-injection, after 7 days chronic treatment), the “morphine-induced increase vs Opiorphin-induced response, day 7” value is reported as “tended to be lower than the response induced by Opiorphin”.
Regarding `NC(=O)CC[C@H](N)C(=O)N[C@@H](CCCN=C(N)N)C(=O)N[C@@H](Cc1ccccc1)C(=O)N[C@@H](CO)C(=O)N[C@@H](CCCN=C(N)N)C(=O)O` [opiorphin, QRFSR] (H-QRFSR-OH), the “protection of the colic wall from inflammation” value in data set [2] was “does not protect the colic wall from inflammation”. The “antinociceptive activity compared with morphine” value in data set [4] (opiorphin 1 mg/kg i.v. vs morphine 6 mg/kg i.p.) is “equivalent”. Moreover, the antinociceptive activity entry in data set [4] (opiorphin 1 mg/kg i.v., n=8-12 rats/group) is “potent antinociceptive activity”. Besides, the anti-peristaltic effect result in the data set with peristaltism in rats (rats treated with opiorphin) is recorded as “not observed”. In addition, in the data set on memorization in rats (24 hours after, Opiorphin 1 mg/kg i.v. given immediately after pre-test, average ±SEM, n=8), the “latency time for entering the dark compartment, Test” value is reported as 158.5 ± 20.5. Also, in the data set on memorization in rats (opiorphin 1 mg/kg i.v.), the amnesia effect entry is “does not show any amnesia effect”. For the same compound, the hyperactivity effect result in [5] is “nor any significant hyperactivity effect”. Besides, in data set [6] (Opiorphin 1 mg/kg i.v., 15 minutes before the test, n=8), the “overall anxiety score, Average ± SEM” value is 25.94 ± 3.74. Besides, the “anxiolytic activity relatively to the control” value in data set [6] (opiorphin 1 mg/kg i.v.) is recorded as “did not show any anxiolytic activity”. The pharmaco-dependence result in data set [7] is recorded as “does not cause significant pharmaco-dependence”. The “response latencies vs morphine-treated rats” value in [3] (15, 25 and 60 minutes after treatment, Opiorphin 2 mg/kg i.v. vs morphine 1 mg/kg i.v.) is listed as “did not significantly differ”. Moreover, the “tolerance to maximal antinociceptive effect” value in data set [3] (Opiorphin 2 mg/kg i.v. once daily for 7 days) is given as “does not induce the development of tolerance”. In addition, the “dose of maximal antinociceptive effect” value in [3] (preliminary data, dose-dependent responses) stood at 2 mg/kg. For the same compound, the “effects of opiorphin in the presence of Naltrindole” value in data set [1] (Naltrindole 10 mg/kg, specific antagonist of δ-opioid receptors) is reported as “abolished”. Besides, the “dose of maximum antidepressant potency” value in data set [1] (administered intravenously, adult male rats) is 1 mg/kg. Also, the “immobility time in the test vs control group (Mann-Whitney)” value in data set [1] (opiorphin 0.5 mg/kg i.v.) was “tends to be less than that of the rats from the control group”; in [1] (opiorphin 1 mg/kg i.v.), “significantly less than that of the rats from the control group”; in data set [1] (opiorphin 2 mg/kg i.v.) it was “significantly less than that of the rats from the control group”. The “immobility time, change between pre-test and test (Wilcoxon)” value in [1] (opiorphin 1 mg/kg i.v.) was “significantly decreases between the pre-test and the test”; in [1] (opiorphin 2 mg/kg i.v.), “significantly decreases between the pre-test and the test”. Moreover, the “effect in the behavioral despair model” value in [1] (opiorphin 1 mg/kg i.v., second series) is on record as “induces an antidepressant effect in addition to a psychostimulant effect”. Also, the “analgesic effect of opiorphin in the presence of Naloxone” value in [8] (Naloxone 3 mg/kg) was “abolished”. In addition, in [8] (duration of licking of the paw and number of spasms, n=8 rats/group), the “prolonged analgesic profile, dose effect” value was “significant dose-dependent effect”. In [8] (i.v., duration of licking of the paw and number of spasms, 60 min), the “dose of maximum anti-nociceptive potency” value was 1 to 2 mg/kg. In addition, the “analgesic effect of opiorphin in the presence of CTPA” value in [8] (specific antagonist of μ-opioid receptors, 0.8 mg/kg) is given as “abolished”.
